Reference: patent US5015629A, “Tissue repair” (University of Southern California, priority 1990, dated 1991)

Tested on: bovine endothelial cells
Assay type: cell-based
Procedure: In a second example, the effects of angiotensin II on proliferation (mitogenesis) and directional migration (chemotaxis) of endothelial cells were determined. In this regard, it is important to consider that tissue repair requires proper neovascularization, and that new blood vessel growth for wound repair requires endothelial cell replication, migration and orientation. Wound healing factors must be able to stimulate chemotaxis and cell proliferation in addition to initiating new blood vessel growth. The proliferation (mitogenesis) and the directional orientation of such cells (chemotaxis) was studied in vitro using bovine aortal endothelial cells. […] Background radioactivity (noncell-associated) was assessed by removing some filters immediately after the addition of cells prior to cellular migration, and processing these control filters the same way as the test filters. […] The latter was calculated by the following formula: [formula] where R equals the radioactivity in cpm associated with each test filter, B equals the cpm obtained from the background filters, T equals the cpm obtained from a volume (V) of cells in suspension at a known concentration (C) and S equals the cpm obtained from the cell supernate (noncellular, or unbound radioactivity). […]

For `CC[C@H](C)[C@H](NC(=O)[C@H](Cc1ccc(O)cc1)NC(=O)[C@@H](NC(=O)[C@H](CCCNC(=N)N)NC(=O)[C@@H](N)CC(=O)O)C(C)C)C(=O)N[C@@H](Cc1c[nH]cn1)C(=O)N1CCC[C@H]1C(=O)N[C@@H](Cc1ccccc1)C(=O)O` [angiotensin II], the ED50 of chemotaxis was 3 nanogram/ml.
